Counter-ions that a name gives are not always drawn.
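Note: Luminescence-based viability readout, five doses per compound, normalized against on-plate DMSO and empty-well controls, followed by dose-response curve fitting for every drug.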

This test deals with HCT116. Description: efficacy (fitted maximal change in viability relative to DMSO control); higher = less cytotoxic (negative = loss of viability). The note with it: 48 h.
Take `CC[C@]12CC[C@H]3[C@@H](CCC/4=C/C(=O)CC[C@H]34)[C@@H]1\C=C/[C@@]2(O)C#C` [Gestodene]: the efficacy was -21.8%. `O=c1cc(O)c(Cl)c[nH]1` [Gimeracil]: the efficacy was -6.4%. For the compound `C[C@@H]1C(=O)OC2[C@H](O)[C@]34[C@H]5C[C@@H](C(C)(C)C)[C@]36[C@@H](OC(=O)[C@@H]6O)O[C@@]4(C(=O)O5)[C@]21O` (some centres not stated) [Ginkgolide B], the efficacy is -9.74%. As for `CN1CC[C@@H](NC(=O)Nc2ccc(C#N)cc2)C[C@@H]1c1nc2ccccc2[nH]1` [Glasdegib], the efficacy is -8.71%. Consider `CCC1=C(C)CN(C(=O)NCCc2ccc(S(=O)(=O)NC(=O)N[C@H]3CC[C@H](C)CC3)cc2)C1=O` [Glimepiride], for which the efficacy is -14.8%. As for `CN1[C@@H]2CCC[C@H]1CC(NC(=O)c1nn(C)c3ccccc13)C2` (some centres not stated) [Granisetron (AB-1001)], the efficacy is -17.2%. On to `C=CC(=O)Nc1cc(N2CCN(CC)CC2)ccc1Nc1cc(N(C)C(=O)Nc2c(Cl)c(OC)cc(OC)c2Cl)ncn1` [H3B-6527], for which the efficacy is -19.6%.

`CCOC(=O)C(C#N)C\1C2=CC(=CC=C2O\C(=C1C(=O)OCC)N)Br` (configuration not stated) [HA-14-1]: the efficacy was -8.15%.

As to `Oc1cc2c(cc1O)C1c3ccc(O)c(O)c3OCC1(O)C2` (configuration not stated) [Hematoxylin], the efficacy is -9.9%.

On to `CCC(c1ccc(O)cc1)C(CC)c1ccc(O)cc1` (configuration not stated) [Hexestrol], for which the efficacy is -61.8%. `CNc1nc(Nc2ccc(C(=O)N3CCOCC3)cc2OC)ncc1Cl` [Hg-10-102-01]: the efficacy was -12.2%. On to `N[S+](=O)([O-])c1cc2c(cc1Cl)NCN[S+]2(=O)[O-]` [Hydrochlorothiazide], for which the efficacy was determined as 7.16%. Consider `C[C@]\12CCC(=O)\C=C1CC[C@H]3[C@@H]4CC[C@](O)(C(=O)CO)[C@@]4(C)C[C@H](O)[C@H]23` [Hydrocortisone], for which the efficacy is -23%. Take `C/C1=C2/[N]3[Co+]456([OH])<-[N]7=C1[C@@H](CCC(N)=O)C(C)(C)/C7=C/C1=[N]->4C(=C(/C)C4=[N]->5[C@@](C)([C@H]3[C@H](CC(N)=O)[C@@]2(C)CCC(=O)NC[C@@H](C)OP(=O)([O-])O[C@H]2[C@@H](O)[C@@H](n3c[n]->6c5cc(C)c(C)cc53)O[C@@H]2CO)[C@@](C)(CC(N)=O)[C@@H]4CCC(N)=O)/[C@@](C)(CC(N)=O)[C@@H]1CCC(N)=O` [Hydroxocobalamin]: the efficacy is -39.6%. `CC(C)(O)C(=O)Nc1ccc([N+](=O)[O-])c(C(F)(F)F)c1` [Hydroxyflutamide]: the efficacy was -27.7%. Turning to `C[C@H](CCC(=O)O)[C@H]1CCC2C3C[C@H](O)[C@@H]4C[C@H](O)CC[C@]4(C)C3CC[C@@]21C` (some centres not stated) [Hyodeoxycholic acid], the efficacy was found to be 5.2%. To `CCN(c1ccccc1)c1cc(NC)[n+](C)c(C)n1` [ICI-D7288] belongs -13%. To `CC(C(C)N1CC(=O)NC(=O)C1)N1CC(=O)NC(=O)C1` (configuration not stated) [ICRF-193] belongs -32.2%; to `COc1ccc(-n2c(C)c([N+](=O)[O-])c3ccc(O)cc32)cc1` [ID-8], -14.4%. `O=C(O)CCCCCC(=O)NN=C1CCCC1` [IDE-2]: the efficacy was -8.18%. For the compound `CCCCc1ccc(N[S+](=O)([O-])c2ccc(C)c(C(=O)N3CCN(c4cccc(C)c4C)CC3)c2)cc1` [IDH-001], the efficacy is -48.4%. With `Cc1ccccc1C(C(=O)NC1CCCCC1)N(C(=O)CNc1ccc(C#N)cc1)c1cccc(F)c1` (configuration not stated) [IDH-C227], the efficacy is -56.1%.

As to `COc1cc2ncn(-c3cc(OCc4ccccc4[S+](C)(=O)[O-])c(C#N)s3)c2cc1OC` [IKK-3 Inhibitor IX], the efficacy is -13.8%. As for `OC(=O)CNC(=O)\C1=C(/O)C2=CC=CC=C2N(CC3=CC=CC=C3)C1=O` [IOX2], the efficacy was 9.68%. To `O=C(O)c1ccc(O)c2ncccc12` [IOX-1] belongs -36.7%; to `Oc1ccc2ccccc2c1SSc1c(O)ccc2ccccc12` [IPA-3], -115%. To `Cc1cc(/C=c2/sc3nc4ccccc4n3c2=O)c(C)n1-c1ccccc1` [ITX3] belongs -19.9%; to `CC1=CC=C2N=C(NC(=O)CS\C3=N\C4=C(\SCC4)C(=O)N3C5=CC=CC=C5)SC2=C1` [IWP-2], -12.9%; to `O=C1CC[C@H](N2Cc3c(OCc4ccc(CN5CCOCC5)cc4)cccc3C2=O)C(=O)N1` [Iberdomide], -18.8%. With `CC(C)(N)C(=O)N[C@H](COCc1ccccc1)C(=O)N1CCC2(CC1)CN([S+](C)(=O)[O-])c1ccccc12` [Ibutamoren mesilate], the efficacy was -50.7%. As to `CCCCCCCN(CC)CCCC(O)c1ccc(N[S+](C)(=O)[O-])cc1` (configuration not stated) [Ibutilide fumarate], the efficacy is -59.1%. To `COC1=CC=C(C=C1)C/2=C(OC3O[C@@H](C)[C@H](O)[C@@H](O)[C@H]3O)/C(=O)C4=C(O2)C(=C(OC5O[C@H](CO)[C@@H](O)[C@H](O)[C@H]5O)C=C4O)CC=C(C)C` (some centres not stated) [Icariin] belongs -27.5%. With `COC1=CC=C(C=C1)/C2=C(O)/C(=O)C3=C(O)C=C(O)C(=C3O2)CC=C(C)C` [Icaritin], the efficacy is -16.5%. Take `C#Cc1cccc(Nc2ncnc3cc4c(cc23)OCCOCCOCCO4)c1` [Icotinib hydrochloride]: the efficacy was -36%. With `CC[C@H](NC1=C2N=C[NH]C2=NC=N1)C/3=N/C4=C(C(=CC=C4)F)C(=O)N3C5=CC=CC=C5` [Idelalisib], the efficacy is -25.3%. `C[S+]([O-])(=O)NC1=CC2=C(C=C1OC3=CC=CC=C3)C(=O)\C(=C/O2)NC=O` [Iguratimod]: the efficacy is -14.8%. Take `CNC(=O)[C@H](Cc1c[nH]c2ccccc12)NC(=O)[C@@H](CC(=O)NO)CC(C)C` [Ilomastat (GM6001, Galardin)]: the efficacy is -7.39%. `C[C@@H]\1/N=C(/N)NC(=N1)\N(C)C` [Imeglimin]: the efficacy is -5.96%. `CC(C)Cn1cnc2c(N)nc3ccccc3c21` [Imiquimod]: the efficacy was -14.9%. As for `CC1Cc2ccccc2N1NC(=O)c1ccc(Cl)c([S+](N)(=O)[O-])c1` (configuration not stated) [Indapamide], the efficacy is -9.36%. Turning to `O=C1Nc2ccccc2/C1=C1\Nc2ccccc2C1=O` [Indirubin], the efficacy is -9.8%.

Turning to `Cn1cc(C[C@@H](N)C(=O)O)c2ccccc21` [Indoximod], the efficacy was -9.77%. To `C/C=C(/C)C(=O)O[C@H]1C(C)=CC23C(=O)C(C=C(CO)[C@@H](O)[C@]12O)[C@H]1[C@@H](C[C@H]3C)C1(C)C` (some centres not stated) [Ingenol mebutate] belongs -63.6%. `NC(=O)c1ccc(I)c([N+](=O)[O-])c1` [Iniparib]: the efficacy was -14.6%. As for `CC(C)Oc1ccc2c(=O)c(-c3ccccc3)coc2c1` [Ipriflavone], the efficacy was -27.7%. For the compound `Cc1csc(NC(=O)c2sc3nc4c(c(C(F)(F)F)c3c2N)CCC4)n1` [Irestatin 9389], the efficacy was -42%. In the case of `N[S+]([O-])(=O)OC1=CC=C2\C3=C(CCCCC3)/C(=O)OC2=C1` [Irosustat (STX-64)], the efficacy is -30.6%.

These data come from the supplement of paper PMC10290057.
